Experimental data from patent US20110015080A1, “Solution-based methods for RNA expression profiling” (MASSACHUSETTS INSTITUTE OF TECHNOLOGY, priority 2005, published 2011).
Values joined by “and” are separate entries in the source; they are usually repeats but may differ in a detail not shown here. Identical values can stand only once. “Also recorded” adds a separate entry of the source.

Legend:
[1] = tested on: HL-60 acute myeloblastic leukemia cells; conditions: treatment during a course of 5 days (Stegmaier et al., 2004); cited from earlier work
[2] = tested on: HL60 (human promyelocytic leukemia) cells; test: LMA-FlexMAP analysis of microtiter well cultures of HL60 cells treated with tretinoin or DMSO, KNN classification; conditions: HL60 cells treated with tretinoin, Experiment 3, replicate samples

CC1=C(/C=C/C(C)=C/C=C/C(C)=C/C(=O)O)C(C)(C)CCC1 [tretinoin, all-trans-retinoic acid]
differentiation of HL-60 cells [1]: potent inducer of neutrophilic differentiation; also recorded: differentiate with increasing neutrophil characteristics | FlexMap signal, ACTB (LUA#91) [2]: 2538 and 2604.5 and 452 and 812 and 1191 and 2112.5 and 2760 and 2845 and 2391 and 144.5 | FlexMap signal, GAPDH_3 (LUA#95) [2]: 2330.5 and 2534 and 579 and 1017 and 1438 and 2495.5 and 2680 and 2718 and 2148 and 172 | FlexMap signal, GAPDH_5 (LUA#93) [2]: 1699 and 1739.5 and 261.5 and 439.5 and 741 and 1388 and 1787 and 1865 and 1714 and 97 | FlexMap signal, GAPDH_M (LUA#94) [2]: 1342.5 and 1462 and 221.5 and 396 and 590.5 and 1179.5 and 1602 and 1586 and 1267.5 and 79 | FlexMap signal, NM_000147 (LUA#29) [2]: 987 and 1072 and 95 and 188.5 and 323 and 713 and 1109 and 1156 and 905 and 43 | FlexMap signal, NM_000211 (LUA#39) [2]: 1072 and 1160 and 204.5 and 356 and 501 and 939 and 1215 (2×) and 924.5 and 109 | FlexMap signal, NM_000250 (LUA#87) [2]: 141 and 157 and 46 and 52 and 67 and 115 and 159 and 166 and 131 and 38 | FlexMap signal, NM_000414 (LUA#22) [2]: 384 and 448 and 48 and 74 and 114 and 272.5 and 479 and 477.5 and 378 and 35 | FlexMap signal, NM_000433 (LUA#28) [2]: 454 and 548 and 62 and 105 and 169 and 371.5 and 580.5 and 600.5 and 406 and 32 | FlexMap signal, NM_000584 (LUA#30) [2]: 1878.5 and 1840 and 240 and 426 and 663 and 1369.5 and 1886 and 1908.5 and 1555 and 96.5 | FlexMap signal, NM_000884 (LUA#81) [2]: 670 and 692 and 126 and 209 and 304 and 612 and 794.5 and 804 and 624 and 58 | FlexMap signal, NM_001034 (LUA#67) [2]: 170 and 171 and 42 and 47 and 73 and 122 and 178 and 184 and 155 and 33 | FlexMap signal, NM_001101 (LUA#34) [2]: 2622 and 2644 and 799 and 1279 and 1711 and 2759.5 and 2895 and 2880 and 2335 and 235 | FlexMap signal, NM_001469 (LUA#79) [2]: 988.5 and 1104 and 141.5 and 246.5 and 395 and 731.5 and 1124 and 1134 and 921 and 75.5 | FlexMap signal, NM_001498 (LUA#18) [2]: 397 and 391.5 and 40 and 71 and 121 and 262 and 386 and 382 and 279 and 30 | FlexMap signal, NM_001684 (LUA#23) [2]: 52.5 and 60 (2×) and 30 and 31.5 and 31 and 52 and 66 and 49 and 25 | FlexMap signal, NM_001948 (LUA#84) [2]: 63 and 62 and 34 and 38 (2×) and 50 and 61 and 59 and 54 and 33 | FlexMap signal, NM_002166 (LUA#25) [2]: 169.5 and 207 and 37 and 51 and 74 and 132 and 188.5 and 211 and 170 and 29 | FlexMap signal, NM_002467 (LUA#90) [2]: 571 and 552.5 and 136 and 162 and 239 and 409.5 and 576 and 644 and 527 and 86 | FlexMap signal, NM_002468 (LUA#40) [2]: 367 and 421 and 57.5 and 93 and 132.5 and 303 and 450 and 473.5 and 357 and 36.5 | FlexMap signal, NM_002539 (LUA#74) [2]: 276 and 278.5 and 46 and 74 and 209 and 271 and 323.5 and 225 and 36 | FlexMap signal, NM_002624 (LUA#36) [2]: 1359 and 1343 and 253.5 and 500 and 700.5 and 1234 and 1402 and 1395 and 1167.5 and 79 | FlexMap signal, NM_002664 (LUA#38) [2]: 1922 and 1934 and 383 and 702 and 1051.5 and 1832 and 2052 and 2064 and 1635.5 and 101 | FlexMap signal, NM_002970 (LUA#42) [2]: 1316 and 1443 and 164 and 329 and 528 and 1106 and 1508 and 1570.5 and 1247 and 57 | FlexMap signal, NM_002982 (LUA#45) [2]: 3449 and 3440 and 1175 and 1759 and 2328 and 3359 and 3548 and 3612.5 and 3101 and 373 | FlexMap signal, NM_003132 (LUA#68) [2]: 431 and 428 and 74 and 117.5 and 194 and 367 and 461 and 482 and 344 and 38 | FlexMap signal, NM_003172 (LUA#19) [2]: 208 and 227 and 45 and 68 and 97 and 199 and 234 and 250 and 179 and 33 | FlexMap signal, NM_003332 (LUA#43) [2]: 2312 and 2346.5 and 591 and 1003 and 1446 and 2239 and 2492 and 2467 and 2041 and 177.5 | FlexMap signal, NM_003581 (LUA#62) [2]: 40.5 and 39.5 and 40 (2×) and 36 and 42 and 47 and 46.5 and 46 and 33 | FlexMap signal, NM_003644 (LUA#17) [2]: 181.5 and 53 and 72 and 75.5 and 220 and 238.5 and 179 and 39 | FlexMap signal, NM_003752 (LUA#82) [2]: 116 and 113 and 54 (2×) and 66 and 93 and 105 and 123 and 96 and 41 | FlexMap signal, NM_003879 (LUA#24) [2]: 65 and 69 and 23 and 29 and 36 and 51 and 77 and 76 and 59 and 34 | FlexMap signal, NM_004079 (LUA#21) [2]: 113 and 124 (2×) and 34 and 41 and 53 and 88 and 122 and 121 and 30 | FlexMap signal, NM_004095 (LUA#59) [2]: 169 and 205 and 46 and 66 and 86.5 and 166.5 and 221 and 208.5 and 147 and 36 | FlexMap signal, NM_004106 (LUA#44) [2]: 1458 and 1423 and 235 and 457 and 672 and 1276 and 1500 and 1506 and 1234 and 68 | FlexMap signal, NM_004134 (LUA#76) [2]: 268 and 286 and 47.5 and 67 and 93 and 182 and 284 and 297 and 240 and 36 | FlexMap signal, NM_004152 (LUA#31) [2]: 1845 and 1993 and 319 and 601 and 837 and 1645 and 2020 and 2157.5 and 1685 and 90.5 | FlexMap signal, NM_004526 (LUA#88) [2]: 153.5 and 172 and 43 and 61 and 76.5 and 187.5 and 191 and 138 and 37 | FlexMap signal, NM_004602 (LUA#32) [2]: 255 and 274.5 and 61 and 87.5 and 116 and 185 and 270 and 293 and 288 and 46 | FlexMap signal, NM_004723 (LUA#20) [2]: 281 and 329 and 61 and 105 and 151 and 271.5 and 350 and 352 and 258 and 37
